Blank lines part the entries; values can stand above or below the molecule they belong to.
How the values were obtained:
[1] = Spontaneous ether cleavage and deiodination in buffered aqueous solution exposed to sunlight; assay type: physicochemical; settings: about 1 mM in carbonate buffer (pH 8.0), sunlight for about one hour
Text: In contrast to reductive deiodination, spontaneous dehalogenation (e.g., deiodination) of a halogentated phenol ring in the presence of an oxidizing agent(s) and/or free radical(s) with cleavage of a chemical linkage, such as an ether linkage, etc., between the phenol ring and a conjugated compound has not been described. According to the present invention, cleavage of the ether linkage between the aromatic rings of thyroid hormone may form visibly colored quinone and iodine-containing products in buffered aqueous solutions in vitro, and this ether cleavage reaction may be accelerated under basic pH conditions and with exposure to ionizing radiation or light. These conditions favor the increased formation of oxidizing agents and/or free radicals, which are believed to promote the reaction. […] A quinone and an iodotyrosine product are also formed by cleavage of the ether linkage during the reaction. According to embodiments of the present invention, a spontaneous reaction of dehalogenation and cleavage of a chemical bond is proposed for the targeted delivery and release of a drug compound at or to sites of inflammation or disease. This spontaneous reaction is further proposed as a basis for scavenging free radicals and/or oxidative agents (FROS) as well as for the creation of a detectable compound(s) that may be used for diagnostic purposes.

[2] = test system: sites of the wound or injury; settings: mice with small injuries or wounds (cuts, scratches); data not shown
[3] = test system: spontaneous tumors; settings: 10 mg by gavage; X-ray imaging about two hours after; mice with spontaneous tumors; same mice before treatment showed no foci
Text: As described above, oxidative foci or tumors may be identified by X-ray radiographic imaging of animals following administration of an indigogenic compound of the present invention. The radio-opaque indigo-like product formed and deposited with residence time in FROS-containing tumor tissues may then be detected.
In this example, female C3H/HeN mice were obtained as multiparous retired breeders (i.e., after 3 to 4 litters) that were positive for a mammary tumor virus. See, e.g., Sellitti, D. F., Tseng, Y-C., and Latham, K. R., “Effect of 3,5,3′-Triiodo-L-thyronine on the Incidence and Growth Kinetics of Spontaneous Mammary Tumors in C3H/HeN Mice,” Cancer Research, 41: 5015-19 (1981), the entire contents and disclosure of which are incorporated herein by reference. Mice showing spontaneous tumors were given 10 mg of 5-Iodo-Indoxyl-3′,5′-Diiodo-4′-hydroxy ether substrate (product of Example 4) by gavage. These mice were then subjected to X-ray imaging of the tumors about two hours after being fed the iodo-indigogenic compound. […] When developed, the X-ray film appears dark in areas where more transmission occurs and light in areas where less transmission occurs.

[4] = Cleavage of C—C bond during oxidative dehalogenation reaction; assay type: physicochemical; settings: oxidative or free radical-mediated dehalogenation
Text: It has also been discovered that other types of bonds or linkages may also be cleaved by oxidative or free radical-mediated dehalogenation of the phenol ring. For example, as described herein, it has now been observed that a carbonyl linkage, a nitrogen linkage, a sulfinyl linkage and possibly a C—C bond on the phenol ring may also be cleaved by the oxidative dehalogenation reaction. These bonds are also considered stable, and their cleavage in connection with the dehalogenation reaction is surprising as well. One caveat with the C—C bond or linkage is that depending on the particular starting compound structure and the substituents or groups attached to the halogenated phenol ring via the C—C bond, the C—C bond or linkage may or may not be generally cleaved during or following the dehalogenation reaction (see below). […] However, other compounds do become cleaved. It is important to note that whether a C—C bond of a particular starting compound is “cleavable,” or becomes cleaved, may not be all-or-nothing (i.e., the C—C bond may be considered non-cleavable even though a small or minute amount of cleavage may occur, and vice versa). Thus, the amount or percentage of cleavage may be partial with the alternatively cleaved or non-cleaved product being possibly undetected or minute. […]

SMILES: N[C@@H](Cc1cc(I)c(Oc2cc(I)c(O)c(I)c2)c(I)c1)C(=O)O [thyroxine]
cleavage of ether linkage with iodide release [1]: the ether linkage is broken spontaneously

SMILES: Oc1c(I)cc(Oc2c[nH]c3ccc(I)cc23)cc1I [Example 4, 5-Iodo-Indolyl-3′,5′-Diiodo-4′-hydroxyl-p-Phenol Ether]
X-ray detection at sites of wound or injury [2]: strong detection was observed at the sites of the wound or injury
radio-opaque tumor regions or foci by X-ray [3]: radio-opaque tumor regions or foci

cleavage of C—C bond with the dehalogenation reaction [4]: generally not to be cleaved
SMILES: N[C@@H](Cc1ccc(O)c(I)c1)C(=O)O [MIT, 3-iodo-4-hydroxy-L-phenylalanine]

— patent US20130017163A1, “HALOGENATED PHENOLS FOR DIAGNOSTICS, ANTIOXIDANT PROTECTION AND DRUG DELIVERY” (priority 2011, published 2013)
